How the values were obtained:
[1] = PET glycolysis in EG with catalyst (microwave); details: 190 °C
Experimental: To establish an economical and efficient PET upcycling process, a chemical PET depolymerization process is required. […] A conventional PET glycolysis method mainly used a heavy metal catalyst. The use of a metal catalyst may have an adverse effect on the biological process of the integrated process and have adverse environmental effects, so glycolysis was performed in a microwave digestion system using betaine instead of a metal catalyst. Specifically, 3.5 to 11.5 g of granular PET and a specific amount of EG were reacted using betaine as a catalyst at 190° C. for 30 to 120 minutes. To maintain the reaction conditions, a microwave digester (Milestone, Shelton, CT) with a thermocouple and magnetic stirrer function was used, and the reaction was performed in a 100 mL reaction vessel for exclusive use of a microwave digester.
To determine the glycolysis effect of betaine, first, the input amount of a substrate was optimized. Glycolysis was performed at 190° C. for 30 minutes by adding 0.5% (catalyst/PET, w/w ratio) betaine to a PET substrate and an EG solvent at a molar ratio (PET:EG) of 1:3, 1:4, 1:5, 1:6, 1:10, or 1:20. Here, the major product BHET and a by-product MHET were produced. The BHET and MHET concentrations were measured by liquid chromatography. As a result, it was confirmed that the highest yield was obtained under a substrate input condition corresponding to a PET:EG molar ratio of 1:5. However, considering the concentration of the final product, it was confirmed that the yield was even higher under the substrate input condition corresponding to the PET:EG molar ratio of 1:4. […] Accordingly, the substrate input condition corresponding to a PET:EG molar ratio of 1:4 was selected, and further conditions were established (Table 2).
To confirm the catalytic effect on the input amount of betaine, betaine corresponding to 0, 0.1, 0.5, 1% (catalyst/PET, w/w ratio) was added, and glycolysis was performed at 190° C. for 30 minutes. As a result, it was confirmed that the condition of adding betaine corresponding to 0.5% (catalyst/PET, w/w ratio) is optimal. Accordingly, this condition was selected, and further conditions were established (Table 2)
Next, to confirm the effect by glycolysis reaction time, the reaction was performed at 190° C. under various reaction time conditions of 30, 60, 90, and 120 minutes. As a result, it was confirmed that 60 minutes is the optimal condition. […] Afterward, in a biological process, the PET glycolysis product that had been produced under the above conditions was used as a substrate (Table 2). […]
To analyze a PET glycolysis product using betaine as a catalyst, high performance liquid chromatography (HPLC) analysis was performed. HPLC analysis conditions are as follows. As a column, a C18 column (OpitmaPak C18-51001546, 5 μm, 150 mm×4.6 mm) was used, and a column temperature was maintained at 25° C. during the analysis. Two mobile phases, A and B, were used, wherein A is 0.1% trifluoroacetic acid in distilled water, and B is methanol. During the analysis at a flow rate of 1 mL/min for 27 minutes, the proportion of the mobile phase B was maintained at 5% at 0 to 2 minutes, and the proportion of the mobile phase B was changed from 5 to 57% at 2 to 18 minutes. At 18 to 22 minutes, the proportion of the mobile phase B was changed from 57 to 5%. Finally, at 22 to 27 minutes, the proportion of the mobile phase B was maintained at 5%. Chromatography was performed at a wavelength of 254 nm using a UV/Vis detector.

[2] = pH of 50 mM sodium phosphate buffer after adding TPA; assay type: physicochemical; details: TPA 4 g/L in 50 mM sodium phosphate buffer (pH 8)
Experimental: Based on the defined enzyme input amounts, a hydrolase reaction was performed using the product of PET glycolysis, in which betaine was used, as a substrate. Accordingly, the efficient input amounts of the IsPETase^Mut and IsMHETase^Mut enzymes relative to substrates were to be confirmed without wasting the enzymes. The reaction conditions included a PET glycolysis product including 10 g/L of BHET as a substrate, 50 mM sodium phosphate buffer (pH 8), and a volume of 500 μL. After the reaction was performed at 40° C. for 6 hours, 30 min, 1 hr, 3 hr, and 6 hr, samples were diluted in methanol and centrifuged at 25,188 g for 10 minutes, and followed by analyzing the supernatant through high performance liquid chromatography (HPLC). As a result, in FIG. 6c, when the enzyme input amounts are 2.3 U/L and 4.5 U/L, compared to 9.0 U/L, it was confirmed that the amount of the product TPA is low. As the reaction progressed, it was expected that the pH was lowered and the enzyme activity was lost due to the influence of the product TPA. First, to confirm how low the pH is under the enzymatic hydrolysis reaction conditions due to the influence of TPA, TPA was added at a concentration of 0 to 10 g/L under the condition of 50 mM sodium phosphate buffer (pH 8). As a result, in FIG. 6d, the pHs of all samples were measured with a pH meter and visually confirmed with pH paper. […]

[3] = target: T1, IsPETase^Mut (Piscinibacter sakaiensis, UniProt A0A0K8P6T7, D186H/R280A/S121E); test: Inhibitory effect of catalysts on IsPETase^Mut enzyme reaction; assay type: biochemical, Ideonella sakaiensis; details: 1 mM; enzyme 2.3 U/L; substrate BHET; 50 mM sodium phosphate buffer (pH 8); 40 °C, 15 minutes
T1 construct: His tag (pET28a vector) (N); made in house; host or cells: E. coli BL21(DE3)
Experimental: (§1) To confirm whether the metal catalysts used in conventional PET glycolysis and betaine, which is an eco-friendly catalyst selected in this study, can have inhibitory effects on enzymatic hydrolysis, IsPETase^Mut and IsMHETase^Mut enzyme experiments were performed using 1 mM each of betaine, Ca^2+, Co^2+, Cu^2+, Fe^2+, Mg^2+, Mn^2+, Ni^2+, pb^2+, Zn^2+, and Li^+. The experiments were performed under conditions including an enzyme concentration of 2.3 U/L, 2.5 mg each of the substrates BHET and MHET, 50 mM sodium phosphate buffer (pH 8), and a volume of 500 μL. After performing the reaction at 40° C. for 15 minutes, all samples were diluted in methanol and centrifuged at 25,188 g for 10 minutes, followed by analyzing the supernatant through high performance liquid chromatography (HPLC). […] Therefore, the product of PET glycolysis using betaine may be used in enzymatic hydrolysis.

[4] = target: T2, IsMHETase^Mut (Piscinibacter sakaiensis, UniProt A0A0K8P8E7, W397A); test: Inhibitory effect of catalysts on IsMHETase^Mut enzyme reaction; assay type: biochemical, Ideonella sakaiensis; details: 1 mM; enzyme 2.3 U/L; substrate MHET; 50 mM sodium phosphate buffer (pH 8); 40 °C, 15 minutes
T2 construct: His tag (pET28a vector) (N); made in house; host or cells: E. coli BL21(DE3)
Experimental: as §1

[5] = PET film; pH 7.0; 30 °C; 18 h; Yoshida et al.; cited from earlier work
[6] = PET/EG 1:4, catalyst/PET 0.5 wt %, 60 min
[7] = PET/EG 1:3, catalyst/PET 0.5 wt %, 30 min
[8] = PET/EG 1:4, catalyst/PET 0.1 wt %, 30 min
[9] = PET/EG 1:4, catalyst/PET 0.5 wt %, 30 min
[10] = PET/EG 1:4, catalyst/PET 0.5 wt %, 90 min
[11] = PET/EG 1:4, catalyst/PET 0.5 wt %, 120 min
[12] = PET/EG 1:4, catalyst/PET 1 wt %, 30 min
[13] = PET/EG 1:5, catalyst/PET 0.5 wt %, 30 min
[14] = PET/EG 1:6, catalyst/PET 0.5 wt %, 30 min
[15] = PET/EG 1:10, catalyst/PET 0.5 wt %, 30 min
[16] = PET/EG 1:20, catalyst/PET 0.5 wt %, 30 min

T2 sequence (A0A0K8P8E7 other isoform, or with tags, fused parts or gaps W397A): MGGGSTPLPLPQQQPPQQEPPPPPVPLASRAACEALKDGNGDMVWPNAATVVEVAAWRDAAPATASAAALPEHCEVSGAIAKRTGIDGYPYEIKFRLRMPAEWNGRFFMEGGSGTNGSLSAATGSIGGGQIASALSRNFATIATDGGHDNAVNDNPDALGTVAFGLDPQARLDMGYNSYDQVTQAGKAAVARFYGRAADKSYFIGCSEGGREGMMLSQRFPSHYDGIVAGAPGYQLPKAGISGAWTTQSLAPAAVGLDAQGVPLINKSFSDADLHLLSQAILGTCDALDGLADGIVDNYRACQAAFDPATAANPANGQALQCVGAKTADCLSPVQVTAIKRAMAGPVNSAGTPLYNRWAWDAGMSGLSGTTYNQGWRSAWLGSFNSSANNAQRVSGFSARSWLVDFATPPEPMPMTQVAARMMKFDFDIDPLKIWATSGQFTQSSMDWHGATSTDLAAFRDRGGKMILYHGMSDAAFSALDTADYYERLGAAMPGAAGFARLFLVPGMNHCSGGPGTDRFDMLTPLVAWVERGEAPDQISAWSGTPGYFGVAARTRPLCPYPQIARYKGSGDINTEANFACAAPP
T1 sequence (A0A0K8P6T7 other isoform, or with tags, fused parts or gaps S121E/D186H/R280A): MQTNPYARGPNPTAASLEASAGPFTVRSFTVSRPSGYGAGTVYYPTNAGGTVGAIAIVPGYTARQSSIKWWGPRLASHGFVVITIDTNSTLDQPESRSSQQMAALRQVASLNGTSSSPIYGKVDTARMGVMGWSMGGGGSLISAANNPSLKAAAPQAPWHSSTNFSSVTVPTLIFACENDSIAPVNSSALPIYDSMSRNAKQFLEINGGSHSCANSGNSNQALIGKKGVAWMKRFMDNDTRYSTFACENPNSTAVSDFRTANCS

For `C1CN=C2NCCCN2C1` [TBD, 1,5,7-triazabicyclo[4.4.0]dec-5-ene, reference compound], the “collective yield of BHET and MHET” value [1, 6] was 55.1%, the “titer of BHET” value [1, 6] was 328.4 g/L and the “titer of MHET” value [1, 6] was 45.9 g/L.

With `O=C(O)c1ccc(C(=O)O)cc1` [TPA, terephthalic acid] the pH [2] was 5.47.

In the case of `C[N+](C)(C)CC(=O)O` [betaine], the “inhibitory effect on IsPETase^Mut enzyme reaction” value [3] is reported as “no inhibitory effect”, the “inhibitory effect on IsMHETase^Mut enzyme reaction” value [4] is reported as “no inhibitory effect” and the “collective yield of BHET and MHET” value [1, 7] is reported as 34.6%. For the same molecule, the “titer of BHET” value [1, 7] was 256.8 g/L, the “titer of MHET” value [1, 7] was 24.9 g/L and the “collective yield of BHET and MHET” value [1, 8] was 26.6%. The “titer of BHET” value [1, 8] was 185.3 g/L, the “collective yield of BHET and MHET” value [1, 9] was 52.3% and the “titer of BHET” value [1, 9] was 330.6 g/L. The “titer of MHET” value [1, 9] was 27.6 g/L, the “collective yield of BHET and MHET” value [1, 6] was 58.7% and the “titer of BHET” value [1, 6] was 368.6 g/L. The “titer of MHET” value [1, 6] was 32.8 g/L, the “collective yield of BHET and MHET” value [1, 10] was 55.1% and the “titer of BHET” value [1, 10] was 341.2 g/L. The “titer of MHET” value [1, 10] was 35.1 g/L, the “collective yield of BHET and MHET” value [1, 11] was 53.8% and the “titer of BHET” value [1, 11] was 313.8 g/L. The “titer of MHET” value [1, 11] was 50.4 g/L, the “collective yield of BHET and MHET” value [1, 12] was 42.4% and the “titer of BHET” value [1, 12] was 286.9 g/L. The “titer of MHET” value [1, 12] was 6.8 g/L, the “collective yield of BHET and MHET” value [1, 13] was 52.7% and the “titer of BHET” value [1, 13] was 307.6 g/L. The “titer of MHET” value [1, 13] was 21.6 g/L, the “collective yield of BHET and MHET” value [1, 14] was 51.6% and the “titer of BHET” value [1, 14] was 268.3 g/L. For the same molecule, the “titer of MHET” value [1, 14] was 19.1 g/L, the “collective yield of BHET and MHET” value [1, 15] was 49.8% and the “titer of BHET” value [1, 15] was 189.8 g/L. For the same molecule, the “titer of MHET” value [1, 15] was 6.7 g/L, the “collective yield of BHET and MHET” value [1, 16] was 37.2% and the “titer of BHET” value [1, 16] was 81.3 g/L. The “titer of MHET” value [1, 16] was 2.9 g/L.

B1: /sPETase^Wild: wild-type PETase of I. sakaiensis, SEQ ID NO: 3 (protein)
chain: HMQTNPYARGPNPTAASLEASAGPFTVRSFTVSRPSGYGAGTVYYPTNAGGTVGAIAIVPGYTARQSSIKWWGPRLASHGFVVITIDTNSTLDQPSSRSSQQMAALRQVASLNGTSSSPIYGKVDTARMGVMGWSMGGGGSLISAANNPSLKAAAPQAPWDSSTNFSSVTVPTLIFACENDSIAPVNSSALPIYDSMSRNAKQFLEINGGSHSCANSGNSNQALIGKKGVAWMKRFMDNDTRYSTFACENPNSTRVSDFRTANCSLE
modifications: IsMHETase_wt
In the case of B1, the “sum of TPA, MHET and BHET” value [5] is listed as “(0.3 mM”.

— patent US12559776B2, “Chemical and biological integrated degradation process for polyethylene terephthalate (PET), for recycling pet” (Korea University Research and Business Foundation, priority 2021, dated 2026)
